One test addresses T1, MAGL (Mus musculus, UniProt O35678).
T1 sequence (O35678 1-303): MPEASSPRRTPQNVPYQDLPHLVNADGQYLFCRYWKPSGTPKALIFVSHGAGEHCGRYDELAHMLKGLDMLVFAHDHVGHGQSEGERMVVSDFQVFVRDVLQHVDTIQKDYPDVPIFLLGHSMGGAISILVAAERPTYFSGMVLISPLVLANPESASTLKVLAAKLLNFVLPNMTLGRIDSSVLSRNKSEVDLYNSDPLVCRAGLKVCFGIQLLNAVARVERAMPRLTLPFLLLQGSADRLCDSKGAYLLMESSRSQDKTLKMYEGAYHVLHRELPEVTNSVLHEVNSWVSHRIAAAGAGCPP
The test is described as follows: Competitive ABPP, mouse brain membrane proteome: MAGL doublet. Particulars: at the highest concentration (10^−5 M).

In another test the test system is LYPLA1. On the set-up: method as in PMID 20418879. To be noted: originally reported; read-out: IC50 in vitro towards LYPLA1; cited from earlier work.
The next test concerns the target T2, hBAT5 (Homo sapiens, UniProt O95870).
T2 sequence (O95870 1-558): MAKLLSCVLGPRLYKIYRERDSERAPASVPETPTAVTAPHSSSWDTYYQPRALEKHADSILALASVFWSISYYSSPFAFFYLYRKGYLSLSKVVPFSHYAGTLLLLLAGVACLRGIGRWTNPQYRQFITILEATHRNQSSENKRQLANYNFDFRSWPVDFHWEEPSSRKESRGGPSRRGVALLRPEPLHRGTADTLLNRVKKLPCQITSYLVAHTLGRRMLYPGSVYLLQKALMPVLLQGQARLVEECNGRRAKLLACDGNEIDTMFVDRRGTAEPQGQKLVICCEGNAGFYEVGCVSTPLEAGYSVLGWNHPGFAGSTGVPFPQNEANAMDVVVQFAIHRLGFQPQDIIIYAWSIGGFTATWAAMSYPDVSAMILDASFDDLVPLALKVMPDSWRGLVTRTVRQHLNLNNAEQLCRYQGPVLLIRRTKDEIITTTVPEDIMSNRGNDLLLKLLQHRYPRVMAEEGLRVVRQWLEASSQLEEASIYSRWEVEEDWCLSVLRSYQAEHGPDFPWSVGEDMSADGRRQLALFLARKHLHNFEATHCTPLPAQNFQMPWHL
The test can be described thus: Inhibition of 1-LG hydrolysis in hBAT5-HEK293 lysates (fluorescent glycerol assay). The test is classed as biochemical. On the set-up: host or cells: HEK293. To be noted: 1-LG 25 µM; 30 min inhibitor pretreatment; monitored 90 min; mean, n=3; read-out: IC50.

Entries after “also recorded” stand apart in the source; their conditions may differ.

In the case of `CCCCCCCCCC[C@@H]1C(=O)O[C@H]1CCc1ccc(OC)c(OC)c1` [Palmostatin B, palmostatin B], the “inhibition of probe binding to MAGL” value on MAGL was “inhibited probe binding; also recorded: also inhibited”. Besides, the IC50 (commonly the concentration at which inhibition is half-maximal) in the test on LYPLA1 is 0.67 µM; at hBAT5 it was 0.1 µM.

(Values after publication PMC4188605, “Biochemical and Pharmacological Characterization of the Human Lymphocyte Antigen B-Associated Transcript 5 (BAT5/ABHD16A)” (PLoS ONE, 2014).)
